Calls of active or inactive are those of the source. No cut-off for these calls is given here.
Tests used:
[1] = biological target: Peptidyl-prolyl cis-trans isomerase NIMA-interacting 1 (Homo sapiens, UniProt Q13526); assay: Inhibition of full length pin1 (unknown origin) expressed in Escherichia coli
[2] = Antiproliferative activity against human HCC cells assessed as cell viability incubated for 72 hrs by alamar blue dye based assay; assay type: toxicity; conditions: for IC50 at 72 h: HCC cells
[3] = tested on: SK-HEP1; assay: Antiproliferative activity human SK-HEP1 cells assessed as cell viability measured up to 120 hrs; assay type: functional, cell-based
[4] = tested on: SK-HEP1; assay: Inhibition of cell migration in human SK-HEP1 cells at 5 uM incubated for 24 hrs by crystal violet staining based microscopic analysis; assay type: functional
[5] = tested on: SK-HEP1; assay: Inhibition of colony formation human SK-HEP1 cells at 2.5 uM incubated for 5 days by crystal violet staining based analysis; assay type: functional, cell-based; conditions: time 5.0 day
[6] = tested on: SK-HEP1; assay: Antiproliferative activity human SK-HEP1 cells assessed as cell viability measured at 96 hrs; assay type: functional, cell-based
[7] = tested on: SK-HEP1; assay: Antiproliferative activity human SK-HEP1 cells assessed as cell viability measured at 120 hrs; assay type: functional, cell-based

Peptidyl-prolyl cis-trans isomerase NIMA-interacting 1, sequence (Q13526 whole entry): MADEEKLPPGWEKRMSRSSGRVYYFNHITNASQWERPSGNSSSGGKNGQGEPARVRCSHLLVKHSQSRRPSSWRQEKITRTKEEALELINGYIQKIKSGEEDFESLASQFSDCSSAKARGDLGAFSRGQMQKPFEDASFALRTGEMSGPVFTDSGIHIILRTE

Row | SMILES | IC50 [1] | IC50 at 72 h [2] | also measured
1 | COCOc1cccc(COc2nc(N)nc3[nH]cnc23)c1 | 0.508 µM | 7.6 µM | –
2 | Nc1nc(OCc2cccc(Cl)c2)c2nc[nH]c2n1 | 0.179 µM | 4 µM | –
3 | CSc1ccc(COc2nc(N)nc3[nH]cnc23)cc1 | 0.829 µM | 6.9 µM | –
4 | Nc1nc(OCc2ccccc2Cl)c2nc[nH]c2n1 | 0.148 µM | 5.6 µM | –
5 | Nc1nc(OCc2ccccc2)c2[nH]cnc2n1 [6-O-BENZYLGUANINE] | 0.0914 µM | 8.5 µM | –
6 | CC(=O)NCc1ccc(COc2nc(N)nc3[nH]cnc23)cc1 | 0.125 µM | 5.3 µM | –
7 | Nc1nc(OCc2cccc(Br)c2)c2nc[nH]c2n1 | 0.64 µM | 11.3 µM | –
8 | COCOc1ccc(COc2nc(N)nc3[nH]cnc23)cc1OC | 0.519 µM | > 50 µM | –
9 | Nc1nc(OCc2cc(OCc3ccccc3)cc(OCc3ccccc3)c2)c2nc[nH]c2n1 | 11.1 µM | 38.5 µM | –
10 | COc1cccc(COc2nc(N)nc3c2ncn3Cc2ccccc2)c1 | 1.46 µM | > 50 µM | –
11 | Cc1ccc(COc2nc(N)nc3nc[nH]c23)cc1 | 0.293 µM | 6.1 µM | –
12 | CCOC(=O)Cn1cnc2c(OCc3cccc(OC)c3)nc(N)nc21 | 21.7 µM | > 50 µM | –
13 | COc1ccc(COc2nc(N)nc3[nH]cnc23)cc1 | 5.39 µM | 4.2 µM | –
14 | Cc1cccc(COc2nc(N)nc3nc[nH]c23)c1 | 0.208 µM | 5.5 µM | –
15 | Nc1nc(OCc2cc(F)ccc2Br)c2nc[nH]c2n1 | 1.65 µM | 22.2 µM | –
16 | Cc1ccc(COc2nc(N)nc3[nH]cnc23)cc1C | 0.951 µM | 5.3 µM | –
17 | Nc1nc(OCc2cccc(F)c2)c2nc[nH]c2n1 | 34.5 µM | 3.3 µM | –
18 | COc1cc(COc2nc(N)nc3[nH]cnc23)ccc1OCc1ccccc1 | 11.1 µM | 11.2 µM | –
19 | Nc1nc(OCC2CCCCC2)c2nc[nH]c2n1 | 5.69 µM | 29.6 µM | –
20 | Nc1nc(OCc2ccc(CNC(=O)C(F)(F)F)cc2)c2nc[nH]c2n1 | 0.148 µM | – | Activity ([2]; hcc, 72 h): Non-toxic; Activity [3]: Active; inhibition [4]: Active; inhibition [5]: Active; Activity [6]: Active; Activity [7]: Active

Row | SMILES | IC50 [1] | IC50 at 72 h [2] | also measured
21 | Nc1nc(OCc2cccc(Cl)c2Cl)c2nc[nH]c2n1 | > 50 µM | 13.3 µM | –
22 | Nc1nc(OCc2ccccc2-c2ccccc2)c2nc[nH]c2n1 | 8.03 µM | 28.9 µM | –
23 | Nc1nc(OCc2cccc3ccccc23)c2nc[nH]c2n1 | 5.79 µM | 33 µM | –
24 | Nc1nc(OCCCc2ccccc2)c2nc[nH]c2n1 | 3.63 µM | 35.6 µM | –
25 | COc1cccc(COc2nc(N)nc3[nH]cnc23)c1 | 13.5 µM | 6.6 µM | –
26 | CCOC(=O)CCCn1cnc2c(OCc3cccc(OC)c3)nc(N)nc21 | 19.1 µM | > 50 µM | –
27 | COc1cccc(Oc2nc(N)nc3[nH]cnc23)c1 | 28.2 µM | > 50 µM | –
28 | CCOC(=O)Cn1cnc2c(OCc3cccc(F)c3)nc(N)nc21 | 8.03 µM | > 50 µM | –
29 | Nc1nc(OCc2ccc(Br)cc2)c2[nH]cnc2n1 | 0.256 µM | 4.8 µM | –
30 | O=C1C=CC(=O)c2c(O)cccc21 | – | – | inhibition [5]: Active
31 | Nc1nc(OCc2cccc(C(F)(F)F)c2)c2nc[nH]c2n1 | 0.634 µM | 16 µM | –
32 | CCOC(=O)Cn1cnc2c(OCc3cccc(Oc4ccccc4)c3)nc(N)nc21 | > 50 µM | > 50 µM | –
33 | COC(=O)Cn1cnc2c(OCc3cccc(Cl)c3Cl)nc(N)nc21 | 0.829 µM | > 50 µM | –
34 | CCOC(=O)Cn1cnc2c(OCc3cccc(Cl)c3Cl)nc(N)nc21 | > 50 µM | > 50 µM | –
35 | Nc1nc(OCc2cccs2)c2nc[nH]c2n1 | 7.15 µM | 42.2 µM | –
36 | Nc1nc(OCc2cc(F)ccc2F)c2nc[nH]c2n1 | 0.36 µM | 16.6 µM | –
37 | Nc1nc(SCc2ccccc2)c2[nH]cnc2n1 | 2.06 µM | 10.4 µM | –
38 | Nc1nc(OCc2cccc(Oc3ccccc3)c2)c2nc[nH]c2n1 | > 50 µM | 34.3 µM | –
39 | CCCCOc1nc(N)nc2[nH]cnc12 | 18.3 µM | > 50 µM | –
40 | COc1cc(COc2nc(N)nc3[nH]cnc23)cc(OC)c1OC | 7.85 µM | > 50 µM | –

Reference: ChEMBL document CHEMBL6096731, “Structure-Guided Optimization and Preclinical Evaluation of 6-O-Benzylguanine-Based Pin1 Inhibitor for Hepatocellular Carcinoma Treatment” (J Med Chem, 2025)
